Blank lines part the entries; values can stand above or below the molecule they belong to. Calls of active or inactive are those of the source.
Key:
Hexokinase HKDC1 = target: T1, Hexokinase HKDC1 (Homo sapiens, UniProt Q2TB90); test: inhibition of HKDC1 glucose phosphorylation – biochemical, W721R variant, dose response (AID 504729); assay type: functional
T1 sequence (Q2TB90 whole entry): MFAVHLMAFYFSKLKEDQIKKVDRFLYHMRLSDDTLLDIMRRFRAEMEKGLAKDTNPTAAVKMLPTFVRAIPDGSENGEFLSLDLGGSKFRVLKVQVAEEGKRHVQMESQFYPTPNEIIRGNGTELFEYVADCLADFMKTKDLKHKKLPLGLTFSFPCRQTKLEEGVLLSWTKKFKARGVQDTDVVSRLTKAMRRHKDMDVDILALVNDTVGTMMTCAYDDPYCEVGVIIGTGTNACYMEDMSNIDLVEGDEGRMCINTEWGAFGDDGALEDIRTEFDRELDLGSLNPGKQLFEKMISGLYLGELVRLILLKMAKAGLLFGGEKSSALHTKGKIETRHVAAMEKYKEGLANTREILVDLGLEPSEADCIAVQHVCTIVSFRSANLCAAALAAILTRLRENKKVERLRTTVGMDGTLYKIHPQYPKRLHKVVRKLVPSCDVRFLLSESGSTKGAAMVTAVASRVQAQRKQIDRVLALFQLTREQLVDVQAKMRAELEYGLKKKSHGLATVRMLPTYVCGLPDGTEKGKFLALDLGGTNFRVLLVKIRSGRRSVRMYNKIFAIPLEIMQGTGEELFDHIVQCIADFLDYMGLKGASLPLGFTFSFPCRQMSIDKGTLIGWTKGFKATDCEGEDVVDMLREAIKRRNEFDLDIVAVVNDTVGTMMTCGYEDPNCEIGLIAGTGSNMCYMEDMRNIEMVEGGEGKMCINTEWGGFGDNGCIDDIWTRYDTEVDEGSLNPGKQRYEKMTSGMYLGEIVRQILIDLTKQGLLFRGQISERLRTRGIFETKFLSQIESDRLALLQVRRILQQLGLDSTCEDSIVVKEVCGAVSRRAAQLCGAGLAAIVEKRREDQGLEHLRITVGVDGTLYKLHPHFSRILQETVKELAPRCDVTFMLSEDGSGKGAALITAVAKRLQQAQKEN

Cytochrome P450 2C9 = Cytochrome P450 2C9 (Homo sapiens, UniProt P11712); conditions: Potency
Cytochrome P450 2C9, sequence (P11712 whole entry): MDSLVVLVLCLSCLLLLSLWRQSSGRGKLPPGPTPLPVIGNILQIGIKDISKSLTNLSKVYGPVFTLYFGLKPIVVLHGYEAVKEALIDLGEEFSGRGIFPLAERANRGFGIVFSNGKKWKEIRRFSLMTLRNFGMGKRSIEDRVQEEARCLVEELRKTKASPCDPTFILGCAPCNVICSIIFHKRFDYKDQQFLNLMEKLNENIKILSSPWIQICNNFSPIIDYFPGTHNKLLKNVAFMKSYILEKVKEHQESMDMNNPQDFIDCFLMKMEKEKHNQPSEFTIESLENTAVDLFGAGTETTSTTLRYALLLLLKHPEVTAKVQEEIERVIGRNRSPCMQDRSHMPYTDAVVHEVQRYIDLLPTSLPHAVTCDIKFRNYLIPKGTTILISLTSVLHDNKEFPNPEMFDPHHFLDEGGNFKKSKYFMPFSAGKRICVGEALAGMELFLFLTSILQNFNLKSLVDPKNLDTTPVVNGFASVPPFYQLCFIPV

[1] = target: Eukaryotic translation initiation factor 4H (Homo sapiens, UniProt Q15056); test: eIF4H binding inhibition – biochemical, uHTS, fluorescence polarization, translation initiation inhibitor project, primary screen (AID 2012)
[2] = target: Polyadenylate-binding protein 1 (Homo sapiens, UniProt P11940); test: blockers of PABP interaction with poly(A) – biochemical, fluorescence polarization, […] (AID 2014)
Polyadenylate-binding protein 1, sequence (P11940 whole entry): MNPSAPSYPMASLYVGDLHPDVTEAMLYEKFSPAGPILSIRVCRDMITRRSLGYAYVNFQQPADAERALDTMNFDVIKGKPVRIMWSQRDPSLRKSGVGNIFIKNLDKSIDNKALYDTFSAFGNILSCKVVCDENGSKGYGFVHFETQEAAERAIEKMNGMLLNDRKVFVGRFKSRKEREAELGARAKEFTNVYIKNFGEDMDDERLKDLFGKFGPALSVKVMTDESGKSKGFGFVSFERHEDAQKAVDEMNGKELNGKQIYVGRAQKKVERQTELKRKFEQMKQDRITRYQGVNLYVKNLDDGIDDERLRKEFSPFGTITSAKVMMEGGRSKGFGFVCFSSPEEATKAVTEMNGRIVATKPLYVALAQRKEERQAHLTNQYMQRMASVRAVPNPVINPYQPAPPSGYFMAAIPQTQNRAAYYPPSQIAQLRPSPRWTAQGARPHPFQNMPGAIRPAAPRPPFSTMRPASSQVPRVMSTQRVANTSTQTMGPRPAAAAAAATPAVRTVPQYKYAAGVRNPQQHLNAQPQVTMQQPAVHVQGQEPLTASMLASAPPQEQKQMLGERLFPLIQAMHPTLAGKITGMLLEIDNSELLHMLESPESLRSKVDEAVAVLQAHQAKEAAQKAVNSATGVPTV

Cytochrome P450 2D6 = Cytochrome P450 2D6 (Homo sapiens, UniProt P10635);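 further: CYP2D6 member of a cytochrome P450 panel assay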
Cytochrome P450 2D6, sequence (P10635 whole entry): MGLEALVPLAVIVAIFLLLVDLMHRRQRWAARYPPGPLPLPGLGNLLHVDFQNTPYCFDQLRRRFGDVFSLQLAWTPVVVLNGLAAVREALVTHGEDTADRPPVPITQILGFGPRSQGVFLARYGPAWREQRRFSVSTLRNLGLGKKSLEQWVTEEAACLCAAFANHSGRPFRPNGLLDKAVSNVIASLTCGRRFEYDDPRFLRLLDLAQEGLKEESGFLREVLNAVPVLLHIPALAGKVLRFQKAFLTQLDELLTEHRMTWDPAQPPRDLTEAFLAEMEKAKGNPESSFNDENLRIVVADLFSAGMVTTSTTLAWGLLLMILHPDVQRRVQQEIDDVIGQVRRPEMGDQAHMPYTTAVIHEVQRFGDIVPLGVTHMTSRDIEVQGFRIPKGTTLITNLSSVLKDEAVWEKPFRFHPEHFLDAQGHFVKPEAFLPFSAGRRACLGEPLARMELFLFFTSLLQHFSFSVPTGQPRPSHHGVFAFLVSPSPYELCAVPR

HeLa = test: Cytotoxicity counterscreen assay for transcriptional activators of heat shock protein 70 (Hsp70). [Related pubchem assays: 1203, 1252 ]; assay type: functional; conditions: Homo sapiens;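 further: cells exposed to compound for 16 hours before readout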
[3] = target: T2, Alkaline phosphatase, tissue-nonspecific isozyme (Homo sapiens, UniProt P05186)
T2 sequence (P05186 whole entry): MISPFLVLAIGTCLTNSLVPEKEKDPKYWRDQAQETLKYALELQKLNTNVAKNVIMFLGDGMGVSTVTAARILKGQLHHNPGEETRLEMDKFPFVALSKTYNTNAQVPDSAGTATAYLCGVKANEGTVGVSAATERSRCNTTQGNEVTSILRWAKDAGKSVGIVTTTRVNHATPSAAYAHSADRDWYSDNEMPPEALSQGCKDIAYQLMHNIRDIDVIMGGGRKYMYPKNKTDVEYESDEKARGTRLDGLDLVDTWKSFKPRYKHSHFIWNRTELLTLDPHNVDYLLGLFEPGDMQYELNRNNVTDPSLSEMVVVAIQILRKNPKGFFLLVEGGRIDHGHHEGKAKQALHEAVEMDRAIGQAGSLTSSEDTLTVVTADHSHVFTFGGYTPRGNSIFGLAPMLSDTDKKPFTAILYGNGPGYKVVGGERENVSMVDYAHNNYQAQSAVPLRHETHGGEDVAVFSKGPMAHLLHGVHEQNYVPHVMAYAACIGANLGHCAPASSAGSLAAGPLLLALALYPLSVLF

Cytochrome P450 2C19 = Cytochrome P450 2C19 (Homo sapiens, UniProt P33261); test: Cytochrome panel assay with activity outcomes. Panel member name: p450-cyp2c19 Compounds with AC50 equal or less than 10 uM are considered active; assay type: functional; conditions: read-out: AC50
Cytochrome P450 2C19, sequence (P33261 whole entry): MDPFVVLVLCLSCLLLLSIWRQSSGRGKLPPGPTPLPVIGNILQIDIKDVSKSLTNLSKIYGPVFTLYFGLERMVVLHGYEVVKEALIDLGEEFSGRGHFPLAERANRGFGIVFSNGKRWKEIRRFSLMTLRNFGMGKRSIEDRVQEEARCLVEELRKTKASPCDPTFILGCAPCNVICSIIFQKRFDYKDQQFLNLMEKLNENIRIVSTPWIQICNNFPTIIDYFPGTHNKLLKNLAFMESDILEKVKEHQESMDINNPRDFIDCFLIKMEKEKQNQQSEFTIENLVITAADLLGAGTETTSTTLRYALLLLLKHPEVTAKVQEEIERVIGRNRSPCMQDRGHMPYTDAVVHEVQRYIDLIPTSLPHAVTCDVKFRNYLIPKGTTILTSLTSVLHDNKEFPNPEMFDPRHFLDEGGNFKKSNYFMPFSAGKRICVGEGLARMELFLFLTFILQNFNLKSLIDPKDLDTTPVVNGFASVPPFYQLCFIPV

Leucine aminopeptidase = target: T3, Leucine aminopeptidase (Plasmodium falciparum 3D7, UniProt Q8IL11); test: P. falciparum M17LAP inhibitors, primary screen, biochemical, fluorogenic H-Leu-NHMec substrate, 1536-well (AID 1619); assay type: functional
T3 sequence (Q8IL11 whole entry): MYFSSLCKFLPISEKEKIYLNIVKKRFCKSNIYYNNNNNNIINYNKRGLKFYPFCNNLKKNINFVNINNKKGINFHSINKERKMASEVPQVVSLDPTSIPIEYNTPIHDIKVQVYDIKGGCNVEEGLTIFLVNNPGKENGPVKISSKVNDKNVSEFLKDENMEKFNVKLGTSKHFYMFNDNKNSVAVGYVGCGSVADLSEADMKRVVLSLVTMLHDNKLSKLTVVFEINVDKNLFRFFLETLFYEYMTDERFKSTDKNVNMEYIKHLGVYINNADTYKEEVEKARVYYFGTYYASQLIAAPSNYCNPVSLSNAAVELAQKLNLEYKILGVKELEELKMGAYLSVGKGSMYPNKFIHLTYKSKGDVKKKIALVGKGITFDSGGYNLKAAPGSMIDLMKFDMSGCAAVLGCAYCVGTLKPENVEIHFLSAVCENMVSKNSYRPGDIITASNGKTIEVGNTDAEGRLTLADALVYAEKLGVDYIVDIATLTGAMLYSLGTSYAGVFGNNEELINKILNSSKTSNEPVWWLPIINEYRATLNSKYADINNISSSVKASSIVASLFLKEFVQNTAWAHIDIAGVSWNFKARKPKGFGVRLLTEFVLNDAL

Aminopeptidase N = target: T4, Aminopeptidase N (Plasmodium falciparum FcB1/Columbia, UniProt O96935); test: malaria alanyl aminopeptidase activity blockers – biochemical, fluorogenic H-Leu-NHMec substrate, 1536-well (AID 1445); design: species or system Plasmodium falciparum 3D7, 3D7
T4 sequence (O96935 whole entry): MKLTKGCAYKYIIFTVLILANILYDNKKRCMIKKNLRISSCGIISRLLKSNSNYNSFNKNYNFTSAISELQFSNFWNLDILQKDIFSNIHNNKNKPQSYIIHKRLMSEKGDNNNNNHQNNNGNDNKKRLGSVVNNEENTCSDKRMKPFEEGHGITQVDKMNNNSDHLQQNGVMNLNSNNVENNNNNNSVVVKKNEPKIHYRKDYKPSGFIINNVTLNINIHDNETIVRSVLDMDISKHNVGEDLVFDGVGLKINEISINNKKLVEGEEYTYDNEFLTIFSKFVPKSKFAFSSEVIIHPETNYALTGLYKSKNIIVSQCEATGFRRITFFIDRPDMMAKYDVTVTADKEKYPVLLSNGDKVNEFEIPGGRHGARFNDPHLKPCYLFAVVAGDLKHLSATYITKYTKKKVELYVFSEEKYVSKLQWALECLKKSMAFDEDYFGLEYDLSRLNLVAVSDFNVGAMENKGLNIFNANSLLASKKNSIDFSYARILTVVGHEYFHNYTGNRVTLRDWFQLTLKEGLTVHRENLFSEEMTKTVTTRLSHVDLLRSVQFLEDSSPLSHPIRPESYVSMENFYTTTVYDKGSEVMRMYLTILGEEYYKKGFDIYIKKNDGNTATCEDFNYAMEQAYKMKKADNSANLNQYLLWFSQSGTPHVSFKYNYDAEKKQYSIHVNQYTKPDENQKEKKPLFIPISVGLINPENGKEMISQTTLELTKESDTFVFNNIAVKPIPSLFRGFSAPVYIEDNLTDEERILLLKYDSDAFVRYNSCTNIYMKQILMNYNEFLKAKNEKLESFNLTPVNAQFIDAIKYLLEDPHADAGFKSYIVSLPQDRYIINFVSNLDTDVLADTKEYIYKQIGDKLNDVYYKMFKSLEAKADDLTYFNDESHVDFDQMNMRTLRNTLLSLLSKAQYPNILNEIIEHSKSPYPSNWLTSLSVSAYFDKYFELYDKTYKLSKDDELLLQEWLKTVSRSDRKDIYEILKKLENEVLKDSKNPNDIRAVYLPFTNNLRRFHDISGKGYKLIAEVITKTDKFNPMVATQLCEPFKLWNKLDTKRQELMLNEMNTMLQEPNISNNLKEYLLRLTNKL

NS3 = NS3 (Hepatitis C virus, UniProt A3EZJ3); test: PubChem AID 2173; design: species or system Hepacivirus hominis
NS3, sequence (A3EZJ3 whole entry): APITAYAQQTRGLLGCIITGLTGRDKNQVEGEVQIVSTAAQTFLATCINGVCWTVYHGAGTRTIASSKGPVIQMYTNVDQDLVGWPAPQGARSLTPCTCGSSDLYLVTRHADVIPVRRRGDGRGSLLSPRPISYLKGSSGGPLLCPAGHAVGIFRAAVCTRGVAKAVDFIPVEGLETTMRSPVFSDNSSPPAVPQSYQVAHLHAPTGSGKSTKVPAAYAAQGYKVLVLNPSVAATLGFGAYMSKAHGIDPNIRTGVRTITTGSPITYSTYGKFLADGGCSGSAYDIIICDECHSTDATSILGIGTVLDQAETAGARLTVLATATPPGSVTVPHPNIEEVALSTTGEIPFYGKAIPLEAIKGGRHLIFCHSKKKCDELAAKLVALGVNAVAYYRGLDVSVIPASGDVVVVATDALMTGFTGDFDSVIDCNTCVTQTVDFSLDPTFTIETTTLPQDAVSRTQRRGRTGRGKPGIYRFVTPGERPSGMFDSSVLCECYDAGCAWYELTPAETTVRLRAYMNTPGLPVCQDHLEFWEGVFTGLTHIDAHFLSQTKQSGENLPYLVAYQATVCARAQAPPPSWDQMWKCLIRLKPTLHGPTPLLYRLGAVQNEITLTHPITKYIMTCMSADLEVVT

[4] = target: FAD-linked sulfhydryl oxidase ALR (Homo sapiens, UniProt P55789); test: ALR-catalysed DTT oxidation blockers – biochemical, H2O2 detection, luminescence, cherry-pick, dose response (AID 493248)
FAD-linked sulfhydryl oxidase ALR, sequence (P55789 whole entry): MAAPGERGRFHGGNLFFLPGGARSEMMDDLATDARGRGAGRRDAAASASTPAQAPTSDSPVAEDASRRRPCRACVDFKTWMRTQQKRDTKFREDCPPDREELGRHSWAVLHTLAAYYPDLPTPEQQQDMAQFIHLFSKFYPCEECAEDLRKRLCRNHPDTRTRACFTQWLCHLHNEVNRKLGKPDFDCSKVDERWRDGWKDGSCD

[5] = target: Luciferin 4-monooxygenase (Photinus pyralis, UniProt P08659); test: inhibition of purified Photinus pyralis luciferase – biochemical, luminescence, dose response (AID 1891)
Luciferin 4-monooxygenase, sequence (P08659 whole entry): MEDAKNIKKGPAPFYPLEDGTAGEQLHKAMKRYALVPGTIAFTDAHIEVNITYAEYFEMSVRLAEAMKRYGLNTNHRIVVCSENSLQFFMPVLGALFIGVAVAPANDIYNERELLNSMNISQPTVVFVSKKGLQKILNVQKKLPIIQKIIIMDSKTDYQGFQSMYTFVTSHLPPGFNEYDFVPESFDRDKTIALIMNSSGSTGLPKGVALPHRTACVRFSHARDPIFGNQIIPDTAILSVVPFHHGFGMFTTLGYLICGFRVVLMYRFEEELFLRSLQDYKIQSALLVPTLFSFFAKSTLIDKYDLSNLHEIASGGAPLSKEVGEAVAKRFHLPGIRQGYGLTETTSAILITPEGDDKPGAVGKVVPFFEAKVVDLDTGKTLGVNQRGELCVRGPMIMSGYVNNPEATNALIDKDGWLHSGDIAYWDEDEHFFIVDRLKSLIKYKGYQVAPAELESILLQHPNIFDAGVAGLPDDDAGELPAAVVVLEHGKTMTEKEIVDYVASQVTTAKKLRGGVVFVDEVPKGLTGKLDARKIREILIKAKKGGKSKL

[6] = Luminescence Cell-Based Dose Confirmation HTS to Identify Inhibitors of Platelet Dense Granule Release. [Related pubchem assays: 1663 (Primary HTS), 1678 (Summary of Project)]; assay type: functional
[7] = Trypanosoma cruzi growth suppression in host cells – NIH3T3 host cells, beta-gal luminescence, confirmation (AID 2044); assay type: functional, cell-based;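 further: intracellular parasites grown in NIH/3T3 mouse fibroblasts as host cells; luminescent beta-galactosidase reporter signal from transgenic T. cruzi replicating inside host cells; inhibitors lower the luminescence signal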
[8] = NIH3T3 cell viability loss – ATP luminescence, mouse fibroblasts, counter-screen, dose response (AID 2010); assay type: functional, cell-based;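 further: cells exposed to compound for about 90 hours before reading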
[9] = target: DNA dC->dU-editing enzyme APOBEC-3A (Homo sapiens, UniProt P31941); test: Dose Response confirmation of small molecule APOBEC3A DNA Deaminase Inhibitors via a fluorescence-based single-stranded DNA deaminase assay. [Related pubchem assays (depositor defined):AID493011, AID493024]; assay type: functional
DNA dC->dU-editing enzyme APOBEC-3A, sequence (P31941 whole entry): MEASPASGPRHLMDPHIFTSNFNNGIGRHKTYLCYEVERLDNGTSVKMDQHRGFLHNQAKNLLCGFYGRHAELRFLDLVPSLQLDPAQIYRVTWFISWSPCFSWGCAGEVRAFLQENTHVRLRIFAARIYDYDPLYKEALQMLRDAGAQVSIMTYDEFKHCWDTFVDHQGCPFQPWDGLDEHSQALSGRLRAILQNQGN

[10] = target: T5, Short transient receptor potential channel 4 (Mus musculus, UniProt Q9QUQ5); test: block of DAMGO-driven TRPC4 calcium entry – cell-based, HEK293 TRPC4/mu-opioid, Fluo-4 calcium, dose response (AID 434942); assay type: functional;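 further: potency of inhibitors blocking the TRPC4 calcium response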
T5 sequence (Q9QUQ5 whole entry): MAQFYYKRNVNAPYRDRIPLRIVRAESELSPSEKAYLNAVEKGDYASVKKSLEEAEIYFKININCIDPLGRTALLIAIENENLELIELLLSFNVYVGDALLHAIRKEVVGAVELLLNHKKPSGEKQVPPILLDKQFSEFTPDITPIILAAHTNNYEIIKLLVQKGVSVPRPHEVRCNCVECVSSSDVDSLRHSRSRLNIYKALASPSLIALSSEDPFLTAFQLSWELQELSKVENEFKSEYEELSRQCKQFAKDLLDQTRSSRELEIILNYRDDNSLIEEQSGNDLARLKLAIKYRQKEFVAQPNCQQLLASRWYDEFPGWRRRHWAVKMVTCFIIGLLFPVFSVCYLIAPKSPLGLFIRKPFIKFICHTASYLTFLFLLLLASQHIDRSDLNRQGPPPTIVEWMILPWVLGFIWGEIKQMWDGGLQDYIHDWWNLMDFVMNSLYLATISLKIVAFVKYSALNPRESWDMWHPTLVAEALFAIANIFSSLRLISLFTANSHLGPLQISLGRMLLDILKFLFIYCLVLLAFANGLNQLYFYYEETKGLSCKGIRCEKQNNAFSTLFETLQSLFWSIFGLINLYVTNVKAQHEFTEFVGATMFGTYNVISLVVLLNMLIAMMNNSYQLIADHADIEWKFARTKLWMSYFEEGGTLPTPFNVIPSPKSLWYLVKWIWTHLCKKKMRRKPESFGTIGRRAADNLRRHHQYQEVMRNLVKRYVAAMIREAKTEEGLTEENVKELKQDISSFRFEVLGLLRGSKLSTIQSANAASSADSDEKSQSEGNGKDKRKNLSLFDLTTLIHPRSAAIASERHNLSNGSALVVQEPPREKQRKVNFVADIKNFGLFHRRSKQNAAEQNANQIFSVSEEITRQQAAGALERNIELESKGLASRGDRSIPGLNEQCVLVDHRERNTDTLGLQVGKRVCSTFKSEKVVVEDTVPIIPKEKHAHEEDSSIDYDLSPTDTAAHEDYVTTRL

[11] = HEK-293T viability loss after treatment – luminescence, T-cell screen hits, cytotoxicity control for TCR NF-kB inhibitor project, dose response (AID 489026); assay type: functional, cell-based;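 further: cells exposed to compound about 14 hours before the viability readout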
[12] = target: DNA dC->dU-editing enzyme APOBEC-3G (Homo sapiens, UniProt Q9HC16); assay type: functional;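 further: Dose-response counterscreen measuring inhibition of APOBEC3G DNA deaminase activity, run while confirming APOBEC3A inhibitors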
DNA dC->dU-editing enzyme APOBEC-3G, sequence (Q9HC16 whole entry): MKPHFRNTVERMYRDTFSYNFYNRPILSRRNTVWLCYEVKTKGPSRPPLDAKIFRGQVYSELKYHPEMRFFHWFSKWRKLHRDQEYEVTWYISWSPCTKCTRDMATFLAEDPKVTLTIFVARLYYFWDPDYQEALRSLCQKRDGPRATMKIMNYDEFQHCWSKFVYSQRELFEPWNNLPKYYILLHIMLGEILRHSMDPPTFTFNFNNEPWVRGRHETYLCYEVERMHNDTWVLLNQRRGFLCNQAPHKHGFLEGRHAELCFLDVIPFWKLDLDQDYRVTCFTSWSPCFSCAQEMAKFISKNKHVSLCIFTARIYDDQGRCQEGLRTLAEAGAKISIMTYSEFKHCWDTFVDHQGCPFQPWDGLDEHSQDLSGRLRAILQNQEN

IC50 (Hexokinase HKDC1): 13.6 µM (active)
Compound: Cc1cc2cc(CCNC(=O)c3ccc(S(=O)(=O)N4CCCC4)cc3)c(O)nc2cc1C

Compound: CC(C)C[C@H]1C(=O)N2CCC[C@@H]2[C@]2(O)O[C@](NC(=O)[C@H]3C=C4c5cccc6[nH]cc(c56)C[C@H]4N(C)C3)(C(C)C)C(=O)N12
AC50 (Cytochrome P450 2C9): 12.6 µM (inconclusive)

Compound: CCOc1ccc(NC(=O)C2CCCN2C(=O)Oc2ccccc2)cc1 (stereo unspecified)
IC50 [1]: > 100 µM (inactive) | IC50 [2]: 1.85 µM (active)

Compound: CN1CCc2cc3c(cc2[C@@H]1[C@@H]1OC(=O)c2c1ccc1c2OCO1)OCO3
AC50 (Cytochrome P450 2C9): 39.8 µM (inconclusive) | AC50 (Cytochrome P450 2D6): 12.6 µM (inconclusive)

Compound: Cc1c(O)ccc(C(=O)CN2CCN(Cc3ccc4c(c3)OCO4)CC2)c1O
CC50 (HeLa): > 99 µM (not active)

EC50 [3]: 63 µM (not active) | AC50 (Cytochrome P450 2C19): 0.178 µM (inconclusive)
Compound: CCNC(=S)NNC(=O)c1cc(CC(C)C)nc2ccccc12

IC50 (Leucine aminopeptidase): 124 µM (active) | IC50 (Aminopeptidase N): 99.7 µM (active) | IC50 (NS3): 6.31 µM (active) | AC50 [4]: 14.6 µM (active)
Compound: COc1ccc(S(=O)(=O)NC2=NC(=O)/C(=C/c3ccco3)S2)cc1

Compound: O=C(Oc1ccc(F)cc1C(=O)/C=C/c1cccs1)c1cccc([N+](=O)[O-])c1
CC50 (HeLa): > 33 µM (not active)

Compound: CCCCCn1c2c(c(=N)c3ccccc31)CCC2
IC50 [1]: > 100 µM (inactive) | EC50 [5]: > 112 µM (not active) | EC50 [6]: 0.788 µM (active) | EC50 [7]: < 0.1 µM (active) | EC50 [8]: > 60 µM (not active) | IC50 [2]: 5.93 µM (active) | IC50 [9]: 2.62 µM (active) | EC50 [10]: 1.5 µM (active) | IC50 [11]: > 80 µM (inactive) | IC50 [12]: 3.19 µM (active) | EC50 (cells): 0.006 µM (active)

EC50 [3]: > 100 µM (not active)
Compound: Oc1c(/C=N/Nc2cccc3cccnc23)ccc2ccccc12

— ChEMBL document CHEMBL1201862, “PubChem BioAssay data set” (2004)
